Results on two compounds are retold here after patent EP2255813A1, “Derivatives of ursodeoxycholic acid for the treatment of diarrhoea” (The Royal College of Surgeons in Ireland, priority 2009, dated 2010).

This assay relates to T84 cells. As to the kind of experiment: Cl^- secretion measured as short-circuit current (Isc) across T84 cell monolayers in Ussing chambers. It counts as cell-based. The method, then:
Materials and Methods: Cultured T84 epithelial cells were employed as a model of the colonic epithelium. T84 cells were grown as monolayers on filter supports. When grown in this way T84 cells retain many of the characteristics of native intestinal epithelium and are widely considered as being among the best reductionist models for analysing intestinal epithelial secretory responses. T84 cell monolayers were mounted in Ussing chambers, and voltage-clamped to zero potential difference. Under these conditions, transepithelial ion transport can be measured as changes in short-circuit current (Isc) and such changes in Isc across T84 cells have been established as wholly due to Cl^- ion secretion. […]

For `C[C@H](CCC(=O)O)[C@H]1CC[C@H]2[C@@H]3[C@@H](O)C[C@@H]4C[C@H](O)CC[C@]4(C)[C@H]3CC[C@]12C` [UDCA, ursodeoxycholic acid], the minimal effective concentration (Homo sapiens, responses to CCh, T84 cells (Figure 3B), read-out: concentration at which antisecretory effects are apparent) was 50 µM.

Take 6-methyl-UDCA [MUDCA]: under “100µM and 500µM for 15 minutes before CCh (100µM) (Figure 7)”, the “secretory responses to CCh” value is “inhibited secretory responses to both CCh and FSK”. Further, the “secretory responses to FSK” value (100µM and 500µM for 15 minutes before FSK (10µM) (Figure 7)) was “inhibited secretory responses to both CCh and FSK”.
